Measurements taken from US20230159511A1, “TETRAHYDROISOQUINOLINE COMPOUNDS AS NRF2 ACTIVATORS” (C4X Discovery Limited, priority 2020, published 2023).

These compounds were tested against T1, human KEAP1 (N-term, residues 321-609) (Homo sapiens, UniProt Q14145) (assay: KEAP1 Kelch Fluorescence Polarization (FP) Assay). Settings: inhibition of Kelch domain-NRF2 interaction; 2 nM FITC-labelled NRF2 peptide, 25 nM KEAP1, 1 h room temperature; compounds below 10 nM cannot be differentiated.
T1 construct: human KEAP1 (N-term, residues 321-609)
Type: binding
Protocol: KEAP1 Kelch Fluorescence Polarization (FP) Assay Method
Inhibition of the Kelch domain-NRF2 interaction was determined using a fluorescence polarization-based competition assay in a black 384-well microplate. Compounds were tested at a starting concentration of 10 μM serially diluted 1:3 to generate a 12-point dose response curve on the Biomek FX robot. Each well contained 2 nM FITC-labelled NRF2 peptide (FITC-LDEETGEFL-NH2) and 25 nM human KEAP1 (N-term, residues 321-609) enzyme in a final volume of 20 μL of assay buffer (50 mM Tris-HCl pH 8.0, 100 mM NaCl, 5 mM MgCl2, 0.005% Tween-20, 0.005% BSA, 0.5% DMSO) in the presence of varying concentrations of test compound. Unlabelled peptide (LDEETGEFL-NH2) at 50 μM (negative control) and 0.5% DMSO (positive control) was used to determine the assay window.
After 1 h at room temperature, fluorescence polarization (excitation 470 nm/emission 530 nm) was measured using an Envision plate reader. IC50 values were determined by fitting the data to a four parameter logistic fit using XLfit or XE Runner within ActivityBase. The assay limit is such that compounds below 10 nM cannot be differentiated.

T1 sequence (Q14145 321-609): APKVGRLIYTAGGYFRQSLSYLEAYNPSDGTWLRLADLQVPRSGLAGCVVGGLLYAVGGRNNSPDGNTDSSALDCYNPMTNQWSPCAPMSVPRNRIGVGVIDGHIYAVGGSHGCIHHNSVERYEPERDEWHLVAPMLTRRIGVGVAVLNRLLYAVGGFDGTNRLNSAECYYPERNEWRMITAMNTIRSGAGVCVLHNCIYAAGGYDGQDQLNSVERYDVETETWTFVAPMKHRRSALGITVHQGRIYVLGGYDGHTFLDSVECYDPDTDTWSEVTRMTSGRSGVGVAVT

Compared with `CNC(=O)[C@H]1CCCC[C@H]1C(=O)N1CCc2cccc(OCc3cnccn3)c2[C@H]1CN1C(=O)c2ccccc2C1=O` [Example 27, (1S,2R)-2-((S)-1-((1,3-dioxoisoindolin-2-yl)methyl)-8-(pyrazin-2-ylmethoxy)-1,2,3,4-tetrahydroisoquinoline-2-carbonyl)-N-methylcyclohexane-1-carboxamide], `CNC(=O)[C@H]1CCCC[C@H]1C(=O)N1CCc2cccc(OCc3ccn[nH]3)c2[C@H]1CN1C(=O)c2ccccc2C1=O` [Example 39, (1S,2R)-2-((S)-8-((1H-pyrazol-5-yl)methoxy)-1-((1,3-dioxoisoindolin-2-yl)methyl)-1,2,3,4-tetrahydroisoquinoline-2-carbonyl)-N-methylcyclo hexane-1-carboxamide] is 5.3-fold higher in IC50: 565 nM for the first, 3010 nM for the second.

First: CNC(=O)N1CCCC[C@H]1C(=O)N1CCc2cccc(O[C@H]3CCN(C(=O)c4cncs4)C3)c2[C@H]1CN1C(=O)c2ccccc2C1=O [Example 28, (S)-2-((S)-1-((1,3-dioxoisoindolin-2-yl)methyl)-8-(((S)-1-(thiazole-5-carbonyl)pyrrolidin-3-yl)oxy)-1,2,3,4-tetrahydroisoquinoline-2-carbonyl)-N-methylpiperidine-1-carboxamide]
Second: CCCNC(=O)[C@H]1CCCC[C@H]1C(=O)N1CCc2cccc(O[C@H]3CCN(C(=O)c4cncs4)C3)c2[C@H]1CN1C(=O)c2ccccc2C1=O [Example 29, (1S,2R)-2-((S)-1-((1,3-dioxoisoindolin-2-yl)methyl)-8-(((S)-1-(thiazole-5-carbonyl)pyrrolidin-3-yl)oxy)-1,2,3,4-tetrahydroisoquinoline-2-carbonyl)-N-propylcyclohexane-1-carboxamide]
The IC50 of the first is 3.9-fold lower: 43 nM for the first, 166 nM for the second.

`COCCNC(=O)[C@H]1CCCC[C@H]1C(=O)N1CCc2cccc(O[C@H]3CCN(C(=O)c4cncs4)C3)c2[C@H]1CN1C(=O)c2ccccc2C1=O` [Example 30, (1S,2R)-2-((S)-1-((1,3-dioxoisoindolin-2-yl)methyl)-8-(((S)-1-(thiazole-5-carbonyl)pyrrolidin-3-yl)oxy)-1,2,3,4-tetrahydroisoquinoline-2-carbonyl)-N-(2-methoxyethyl)cyclo-hexane-1-carboxamide] and `O=C(NCCO)[C@H]1CCCC[C@H]1C(=O)N1CCc2cccc(O[C@H]3CCN(C(=O)c4cncs4)C3)c2[C@H]1CN1C(=O)c2ccccc2C1=O` [Example 35, (1S,2R)-2-((S)-1-((1,3-dioxoisoindolin-2-yl)methyl)-8-(((S)-1-(thiazole-5-carbonyl)pyrrolidin-3-yl)oxy)-1,2,3,4-tetrahydroisoquinoline-2-carbonyl)-N-(2-hydroxyethyl)cyclohexane-1-carboxamide] are within 1.5-fold of each other in IC50: 215 nM for the first, 185 nM for the second.

Going from `O=C(NCC(F)F)[C@H]1CCCC[C@H]1C(=O)N1CCc2cccc(O[C@H]3CCN(C(=O)c4cncs4)C3)c2[C@H]1CN1C(=O)c2ccccc2C1=O` [Example 31, (1S,2R)-N-(2,2-difluoroethyl)-2-((S)-1-((1,3-dioxoisoindolin-2-yl)methyl)-8-(((S)-1-(thiazole-5-carbonyl)pyrrolidin-3-yl)oxy)-1,2,3,4-tetrahydroisoquinoline-2-carbonyl)cyclohexane-1-carboxamide] to `O=C(NCC(F)(F)F)[C@H]1CCCC[C@H]1C(=O)N1CCc2cccc(O[C@H]3CCN(C(=O)c4cncs4)C3)c2[C@H]1CN1C(=O)c2ccccc2C1=O` [Example 32, (1S,2R)-2-((S)-1-((1,3-dioxoisoindolin-2-yl)methyl)-8-(((S)-1-(thiazole-5-carbonyl)pyrrolidin-3-yl)oxy)-1,2,3,4-tetrahydroisoquinoline-2-carbonyl)-N-(2,2,2-trifluoroethyl)cyclohexane-1-carboxamide], the IC50 rises from 539 nM to 2100 nM (3.9-fold). The first is the more potent here.

First: N#CCNC(=O)[C@H]1CCCC[C@H]1C(=O)N1CCc2cccc(O[C@H]3CCN(C(=O)c4cncs4)C3)c2[C@H]1CN1C(=O)c2ccccc2C1=O [Example 33, (1S,2R)-N-(cyanomethyl)-2-((S)-1-((1,3-dioxoisoindolin-2-yl)methyl)-8-(((S)-1-(thiazole-5-carbonyl)pyrrolidin-3-yl)oxy)-1,2,3,4-tetrahydroisoquinoline-2-carbonyl)cyclohexane-1-carboxamide]
Second: O=C(NCCCO)[C@H]1CCCC[C@H]1C(=O)N1CCc2cccc(O[C@H]3CCN(C(=O)c4cncs4)C3)c2[C@H]1CN1C(=O)c2ccccc2C1=O [Example 43, (1S,2R)-2-((S)-1-((1,3-dioxoisoindolin-2-yl)methyl)-8-(((S)-1-(thiazole-5-carbonyl)pyrrolidin-3-yl)oxy)-1,2,3,4-tetrahydroisoquinoline-2-carbonyl)-N-(3-hydroxypropyl)cyclohexane-1-carboxamide]
The IC50 of the first is 8.1-fold higher: 1510 nM for the first, 186 nM for the second. The second is the more potent here.

Going from `CNC(=O)N[C@@H](C)C(=O)N1CCc2cccc(O[C@H]3CCN(C(=O)c4cncs4)C3)c2[C@H]1CN1C(=O)c2ccccc2C1=O` [Example 36, 1-((S)-1-((S)-1-((1,3-dioxoisoindolin-2-yl)methyl)-8-(((S)-1-(thiazole-5-carbonyl)pyrrolidin-3-yl)oxy)-3,4-dihydroisoquinolin-2(1H)-yl)-1-oxopropan-2-yl)-3-methylurea] to `CNC(=O)CCC(=O)N1CCc2cccc(O[C@H]3CCN(C(=O)c4cncs4)C3)c2[C@H]1CN1C(=O)c2ccccc2C1=O` [Example 41, 4-((S)-1-((1,3-dioxoisoindolin-2-yl)methyl)-8-(((S)-1-(thiazole-5-carbonyl)pyrrolidin-3-yl)oxy)-3,4-dihydroisoquinolin-2(1H)-yl)-N-methyl-4-oxobutanamide], the IC50 rises from 126 nM to 788 nM (6.3-fold). The first is the more potent here.

First: CNC(=O)[C@H]1CCCC[C@H]1C(=O)N1CCc2c(Cl)ccc(O[C@H]3CCN(C(C)=O)C3)c2[C@H]1CN1C(=O)c2ccccc2C1=O [Example 37, (1S,2R)-2-((S)-8-(((S)-1-acetylpyrrolidin-3-yl)oxy)-5-chloro-1-((1,3-dioxoisoindolin-2-yl)methyl)-1,2,3,4-tetrahydroisoquinoline-2-carbonyl)-N-methylcyclohexane-1-carboxamide]
Second: CNC(=O)[C@H]1CCCC[C@H]1C(=O)N1CCc2cccc(O[C@H]3CCN(C(=O)c4cncs4)C3)c2[C@H]1CN1CCOC1=O [Example 45, (1S,2R)-N-methyl-2-((S)-1-((2-oxooxazolidin-3-yl)methyl)-8-(((S)-1-(thiazole-5-carbonyl)pyrrolidin-3-yl)oxy)-1,2,3,4-tetrahydroisoquinoline-2-carbonyl)cyclohexane-1-carboxamide]
The IC50 of the first is 7-fold lower: 44 nM for the first, 310 nM for the second. The first is the more potent here.

First: CNC(=O)[C@H]1CCCC[C@H]1C(=O)N1CCc2cccc(O[C@H]3CCN(C(=O)c4cncs4)C3)c2[C@H]1CNC(=O)C1CC1 [Example 38, (1S,2R)-2-((S)-1-(cyclopropanecarboxamidomethyl)-8-(((S)-1-(thiazole-5-carbonyl)pyrrolidin-3-yl)oxy)-1,2,3,4-tetrahydroisoquinoline-2-carbonyl)-N-methylcyclohexane-1-carboxamide]
Second: CNC(=O)[C@H]1CCCC[C@H]1C(=O)N1CCc2cccc(O[C@H]3CCN(C(=O)c4cncs4)C3)c2[C@H]1CNC(C)=O [Example 44]
The IC50 of the first is 7-fold higher: 8200 nM for the first, 1170 nM for the second. The second is the more potent here.

`CNC(=O)CCCC(=O)N1CCc2cccc(O[C@H]3CCN(C(=O)c4cncs4)C3)c2[C@H]1CN1C(=O)c2ccccc2C1=O` [Example 40, 5-((S)-1-((1,3-dioxoisoindolin-2-yl)methyl)-8-(((S)-1-(thiazole-5-carbonyl)pyrrolidin-3-yl)oxy)-3,4-dihydroisoquinolin-2(1H)-yl)-N-methyl-5-oxopentanamide] gave an IC50 of 523 nM.
